Test results: patent publication US8440677B2, “Atropisomers of 2-purinyl-3-tolyl-quinazolinone derivatives and methods of use” (Gilead Calistoga LLC, priority 2009, dated 2013)
Like-named read-outs stand apart in the source and are kept apart here.

Assays:
p110δ [1] = biological target: p110δ (Homo sapiens, UniProt O00329); test: In vitro activity against p110 isoforms, biochemical assays (FIG. 5A); conditions: versus p110alpha, p110beta, p110 gamma isoforms
Description: (§1) The in vitro activity of 1 and atropisomers, 1(S) and 1(R), have similar profiles in various isoforms of p110 inhibition as shown in FIGS. 5A and 5B. […] Although their in vitro potency appears to be similar, there are surprising in vivo differences observed between 1(S) and 1(R) as discovered in pharmacokinetic studies, mainly relating to the increased exposure of 1(S) and decreased exposure of 1(R) in the subject.
Target sequence in this assay (P27986 whole entry partner, one chain of several, canonical isoform): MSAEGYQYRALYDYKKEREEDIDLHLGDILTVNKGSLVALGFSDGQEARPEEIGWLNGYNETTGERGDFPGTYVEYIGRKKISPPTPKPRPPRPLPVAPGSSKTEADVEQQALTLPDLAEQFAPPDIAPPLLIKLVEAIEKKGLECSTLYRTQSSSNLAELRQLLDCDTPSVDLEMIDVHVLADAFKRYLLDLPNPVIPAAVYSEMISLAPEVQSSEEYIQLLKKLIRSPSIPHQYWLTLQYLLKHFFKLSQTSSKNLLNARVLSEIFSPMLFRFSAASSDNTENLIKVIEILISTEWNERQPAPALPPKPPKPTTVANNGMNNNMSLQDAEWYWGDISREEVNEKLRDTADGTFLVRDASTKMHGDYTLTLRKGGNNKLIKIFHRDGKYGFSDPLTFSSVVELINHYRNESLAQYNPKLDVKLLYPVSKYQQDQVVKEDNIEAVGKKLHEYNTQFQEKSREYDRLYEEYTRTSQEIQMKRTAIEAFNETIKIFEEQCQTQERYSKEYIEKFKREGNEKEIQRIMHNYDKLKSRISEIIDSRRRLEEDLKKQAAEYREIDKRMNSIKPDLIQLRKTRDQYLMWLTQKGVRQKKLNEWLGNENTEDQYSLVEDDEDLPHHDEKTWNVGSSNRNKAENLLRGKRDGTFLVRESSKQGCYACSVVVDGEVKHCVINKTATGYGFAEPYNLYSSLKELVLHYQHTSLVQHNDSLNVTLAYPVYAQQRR

p110δ [2] = biological target: T1, p110δ (Homo sapiens, UniProt O00329); test: In vitro activity against p110 isoforms, cell-based assays (FIG. 5B); conditions: versus other p110 isoforms
T1 sequence (O00329 1-1044): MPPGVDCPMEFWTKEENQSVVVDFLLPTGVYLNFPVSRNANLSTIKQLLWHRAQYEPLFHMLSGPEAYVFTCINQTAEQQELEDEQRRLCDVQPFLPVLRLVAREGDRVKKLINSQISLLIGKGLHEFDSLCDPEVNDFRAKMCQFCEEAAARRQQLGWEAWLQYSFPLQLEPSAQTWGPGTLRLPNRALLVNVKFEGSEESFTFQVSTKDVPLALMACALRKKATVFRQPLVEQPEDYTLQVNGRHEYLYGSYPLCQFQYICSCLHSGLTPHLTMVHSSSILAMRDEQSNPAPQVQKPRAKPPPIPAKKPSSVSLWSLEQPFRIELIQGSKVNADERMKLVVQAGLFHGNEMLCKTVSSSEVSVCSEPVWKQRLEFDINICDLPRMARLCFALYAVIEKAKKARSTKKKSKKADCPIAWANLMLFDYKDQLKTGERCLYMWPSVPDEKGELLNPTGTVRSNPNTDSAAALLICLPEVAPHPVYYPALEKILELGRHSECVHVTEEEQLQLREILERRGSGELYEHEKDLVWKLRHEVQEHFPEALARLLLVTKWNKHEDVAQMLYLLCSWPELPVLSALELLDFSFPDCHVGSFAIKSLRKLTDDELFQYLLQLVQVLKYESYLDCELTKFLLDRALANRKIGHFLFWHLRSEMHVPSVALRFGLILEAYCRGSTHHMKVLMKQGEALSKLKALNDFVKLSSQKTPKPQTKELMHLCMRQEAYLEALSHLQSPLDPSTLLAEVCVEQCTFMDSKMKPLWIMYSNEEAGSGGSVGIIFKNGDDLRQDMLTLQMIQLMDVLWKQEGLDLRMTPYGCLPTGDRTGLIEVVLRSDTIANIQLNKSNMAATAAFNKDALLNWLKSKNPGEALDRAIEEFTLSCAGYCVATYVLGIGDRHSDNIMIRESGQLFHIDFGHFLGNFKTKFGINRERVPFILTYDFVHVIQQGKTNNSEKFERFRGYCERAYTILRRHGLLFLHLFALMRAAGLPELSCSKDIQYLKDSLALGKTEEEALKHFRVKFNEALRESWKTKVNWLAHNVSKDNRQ
Description: as §1

[3] = Solubility in a series of aqueous solvents (FIG. 4); format: physicochemical; conditions: variety of aqueous solutions
[4] = Plasma concentration of atropisomers in rats after oral dosing with racemic 1 (FIG. 6); format: in vivo; conditions: female rats, single 50 mg/kg oral dose of racemic 1, 8 hours after dosing
[5] = Plasma concentration of atropisomers in dogs after oral dosing with racemic 1 (FIG. 7); format: in vivo; conditions: female dogs, single 50 mg/kg oral dose of racemic 1
Method: The tagged racemic mixture or separated atropisomers were administered in rats, dogs, and human subjects through oral and i.v. routes. The compounds were dissolved in PEG 100 such that any difference in dissolution rates would not play a role in the pharmacokinetic profile of the compounds. […] After administration of the compound, blood plasma of the subjects were sampled over time and evaluated by analytical HPLC methods developed to identify and measure concentrations of compound 1(S) or 1(R) present in the sample. It was observed that the most abundant isomer measured in the plasma is compound 1(S), which accounts for 70-80% of exposure to the subject.
In approximately 1 hour after dosing the maximum concentration of compounds 1(S) and 1(R) is reached. At that point, the concentration of 1(R) is less than half the concentration of compound 1(S). […] These large differences in pharmacokinetic behavior were not predictable.

[6] = Interconversion of atropisomers in blood plasma; format: in vivo; conditions: within 4 hours after administration of the atropisomer
Description: Another possible explanation for the difference in exposure is that 1(R) is interconverted to 1(S) over time. […] However, this small amount of conversion should only account for a fraction of the difference in exposure rates in vivo and other factors, such as selective elimination of 1(R), are likely to play the major role in the lowered exposure rate of 1(R).

[7] = Elimination in urine by LC-MS; format: in vivo; conditions: compared with 1(S)
[8] = Metabolic products in rat urine by LC-MS (FIG. 12); format: in vivo; conditions: rats, single 50 mg/kg oral dose of the atropisomer
Method: A single 50 mg/kg oral dose of either atropisomer 1(S) or 1(R) was administered to rat subjects. The rat urine was subsequently sampled and analyzed using LC-MS instrumentation.

[9] = human subjects
[10] = for plasma concentration at 24 hours: female rats, single dose 1.5 mg/kg
[11] = human; for AUClast / Cmax / T½: 25 mg racemate daily for 7 days, 40 nCi labeled spike on day 4
[12] = human subject, oral radiolabeled atropisomer; for metabolite formation in plasma, 72 hours: 72 hours after administration
clinical = conditions: human, plasma, po, 100 mg
[13] = Plasma concentration in rats after single oral dose of 1(S) or 1(R) (FIG. 9B); format: in vivo, rat; conditions: female rats, single oral dose 1.5 mg/kg, 12 hour time point
[14] = Plasma concentration in human subjects after a single oral dose of 100 mg or 10 mg (FIG. 10); format: in vivo
[15] = Human pharmacokinetics, racemic mixture versus 1(S) at 10 mg once daily; format: in vivo
Method: Human pharmacokinetic was obtained after both the racemic mixture and 1(S) were administered at 10 mg once daily. […] Since the dose is low and well absorbed, as evidenced by the determination of 100% bioavailability, it is likely that the 1(R) metabolism is greater. The greater extent and complexity of 1(R) metabolism was supported by studies on human and rat in vivo metabolism as well as in vitro studies of human liver microsomes and protein binding.

[16] = test system: collagen induced arthritis (CIA) rats; test: Collagen induced arthritis (CIA) rats; format: in vivo, rat; conditions: compared to vehicle
[17] = compounds dissolved in PEG 100
in vivo = conditions: female, Sprague Dawley, rat, iv
[18] = Metabolites in human plasma; conditions: human subjects dosed with the substance
[19] = Metabolites in human urine by LC/MS/MS; conditions: humans
Description: Urine was collected from humans dosed the racemic mixture and evaluated for possible metabolites using LC/MS/MS.

[20] = single 100 mg oral dose of racemic 1
[21] = female SD rats, single bolus i.v.
[22] = 25 mg racemate daily, labeled spike on day 4, after day 1

In the case of `Cc1ccccc1-n1c(Cn2cnc3c(N)ncnc32)nc2cccc(C)c2c1=O` (single isomer, unassigned) [Compound 1(R), 2-((6-amino-9H-purin-9-yl)methyl)-5-methyl-3-o-tolylquinazolin-4(3H)-one], the “p110δ inhibition in biochemical assays” value (p110δ [1]) is reported as “selective p110δ inhibition”, the “p110δ inhibition in cell-based assays” value (p110δ [2]) is reported as “selective p110δ inhibition” and the “solubility differences between 1(S) and 1(R)” value [3] is reported as “Modest solubility differences”. For the same compound, the “average plasma concentration of 1(R) relative to 1(S)” value [4] was “approximately one-fourth”, the “plasma concentration of 1(R) relative to 1(S) at maximum concentration” value [5] was “less than half” and the “time to maximum plasma concentration” value [5] was “approximately 1 hour”. For the same compound, the “conversion to the other atropisomer in blood plasma” value [6] was “approximately 14%”, the elimination in urine [7] was “preferentially eliminated in urine” and the “metabolic products found in urine” value [8] was “more metabolic products”. For the same compound, the “plasma concentration of 1(R) relative to 1(S) at maximum concentration” value [9, 20] was “less than half”, the “Vz of 1(R) relative to 1(S) or racemic mixture” value [10, 21] was “about 2.6 times” and the “half life of 1(R) relative to 1(S) or racemic mixture 1” value [10, 21] was “about 2.8 times”. For the same compound, the “plasma concentration at 24 hours” value [10] was “very low”, the AUClast [11] was 21676 neq*h/mL and the Cmax [11] was 1946 neq/mL. For the same compound, the “concentration of 14C radiolabeled material in blood plasma” value ([11]; 25 mg racemate daily, labeled spike on day 4, 50 hours from dosing) was 10-50 neq/mL, the “concentration of 1(R) relative to 1(S)” value [11, 22] was “about one-fourth” and the “concentration of 14C radiolabeled material in blood plasma” value [11, 22] was “about 500 neq/mL”. For the same compound, the “metabolite formation in plasma, 72 hours” value [12] was “primarily the metabolites are detected” and the half-life (clinical; half-life, human subjects, single 100 mg oral dose of racemic 1) was ~9 h.
With `Cc1ccccc1-n1c(Cn2cnc3c(N)ncnc32)nc2cccc(C)c2c1=O` (single isomer, unassigned) [Compound 1(S), 2-((6-amino-9H-purin-9-yl)methyl)-5-methyl-3-o-tolylquinazolin-4(3H)-one] the “p110δ inhibition in biochemical assays” value (p110δ [1]) was “selective p110δ inhibition”, the “p110δ inhibition in cell-based assays” value (p110δ [2]) was “selective p110δ inhibition” and the “solubility differences between 1(S) and 1(R)” value [3] was “Modest solubility differences”. For the same compound, the “time to maximum plasma concentration” value [5] was “approximately 1 hour”, the “plasma concentration of 1(S) versus 1(R)” value [13] was “greatly exceed” and the “maximum plasma concentration of 1(S) relative to 1(R)” value ([14]; single oral dose of 10 mg) was “about double”. The “maximum plasma concentration of 1(S) relative to 1(R)” value ([14]; single oral dose of 100 mg) was “over 2 times”, the “conversion to the other atropisomer in blood plasma” value [6] was “less than 1%” and the “metabolic products found in urine” value [8] was “mainly one compound”. For the same compound, the “Cmax of 1(S) greater than racemic mixture” value [15] was 30%, the “increase of AUC0-24 of 1(S) over racemic mixture” value ([15]; Day 1) was 2.4 fold and the “increase of AUC0-24 of 1(S) over racemic mixture” value ([15]; Day 7) was 40%. For the same compound, the anti-collagen antibody levels ([16]; FIG. 15) was “reduction of collagen antibody levels”, the “X-ray score (radiographic assessment)” value ([16]; FIG. 16) was “reduction in the X-ray score” and the “histopathology, dark areas of tissue images” value ([16]; similar to MTX, FIGS. 17A-D) was “reduced”. For the same compound, the arthritis score ([16]; versus days post compound dosing, FIG. 14) was “activity in reducing the severity of arthritis”, the “share of exposure to the subject (most abundant isomer in plasma)” value [17] was 70-80% and the “half-life in humans (in words)” value ([9]; oral racemic 1, greater than in dogs) was “several days”. For the same compound, the “share of the exposure at the maximum concentration point” value [9, 20] was “approximately 70%”, the “plasma concentration of 1(S) relative to 1(R)” value ([9]; single 100 mg oral dose of racemic 1, 72 hours post-dosing) was “over 10 times” and the “plasma concentration at 24 hours” value [10] was “very low”. It also gave an AUClast [11] of 90511 neq*h/mL, a Cmax [11] of 3930 neq/mL and a T½ [11] of 63.9 h. The “AUC of 1(S) relative to 1(R)” value ([11]; data of FIG. 11) was “over 4 times”, the “Cmax of 1(S) relative to 1(R)” value ([11]; data of FIG. 11) was “twice” and the “half-life of 1(S) relative to 1(R)” value ([11]; data of FIG. 11) was 6 times. For the same compound, the “metabolite formation in plasma, 1 hour” value ([12]; 1 hour after administration) was “remains largely unmodified”, the “metabolite formation in plasma, 72 hours” value [12] was “still less than the amount of the parent compound” and the AUC (in vivo; plasma, 1.5 mg/kg) was 865 ± 212 ng·h/mL. For the same compound, the Vd (in vivo; plasma, 1.5 mg/kg) was 5.77 ± 2.74 L/kg, the clearance (in vivo; plasma, 1.5 mg/kg) was 30.6 mL/min/kg and the half-life (in vivo; plasma, 1.5 mg/kg) was 2.5 ± 1.6 h. For the same compound, the half-life (clinical) was > 72 h and the “number of metabolites observed in plasma” value [18] was “one”.
For `Cc1ccccc1-n1c(Cn2cnc3c(N)ncnc32)nc2cccc(C)c2c1=O` (single isomer, unassigned) [Compound 1, 2-((6-amino-9H-purin-9-yl)methyl)-5-methyl-3-o-tolylquinazolin-4(3H)-one], the “p110δ inhibition in biochemical assays” value (p110δ [1]) was “selective p110δ inhibition”, the “p110δ inhibition in cell-based assays” value (p110δ [2]) was “selective p110δ inhibition” and the AUClast [11] was 51,032 ± 22,383 neq*h/mL. The Cmax [11] was 2780 ± 1163 neq/mL, the T½ [11] was 69.9 ± 26.6 h and the AUC (in vivo; in vivo, 3 mg/kg) was 1970 ± 243 ng·h/mL. It also gave a Vd (in vivo; in vivo, 3 mg/kg) of 5.4 ± 1.57 L/kg, a clearance (in vivo; in vivo, 3 mg/kg) of 26 mL/min/kg and a half-life (in vivo; in vivo, 3 mg/kg) of 2.5 ± 0.7 h. The “number of metabolites observed in plasma” value ([18]; listed as racemic mixture) was 2, the “number of metabolites confirmed in urine” value ([19]; authentic racemic standards, achiral method) was 5 and the “total number of metabolites observed in urine” value ([19]; counting atropisomers of metabolites) was 9.
